Patent US9295722B2, “Bacterial glycolipid activation of CD1d-restricted NKT cells” (priority 2005, dated 2016)

Tests used:
Format in all cases: cell-based
mouse NKT cells [1] = experiment: fresh purified mouse NKT cells co-cultured with DC pulsed with synthetic glycolipid; details: for IFN-γ secretion: DC pulsed with 0.001 to 1000 ng/mL glycolipid, 48 hours
Protocol: (§1) Stimulation assays were performed with whole spleen cells (5×10^5 per 200 μl well) or with purified T cells and antigen presenting cells. T cell populations used in the assays comprised sorted CD1d-Gal-Cer+ mouse spleen cells (5×10^4 per 200 μl well), human peripheral blood lymphocytes (PBL) (5×10^5 per 200 μl well) (obtained after Ficoll centrifugation of heparinized blood) or human NKT cell lines (2.5×10^5 per 200 μl well). Human Vα24 NKT cells were derived from PBL stimulated with αGal-Cer and were maintained by repeated rounds of stimulation with PHA and IL-2 in the presence of irradiated PBMC and EBV transformed B cells in vitro. Antigen presenting cells were dendritic cells that were derived from bone marrow, stimulated with GMCSF/IL-4 (2 ng/mL and 5 ng/mL, Biosource) and cultured at 2.5×10^5 per 200 μl well for mouse assays, and irradiated allogeneic human PBMC fresh or cultured for 5 days with recombinant human GMCSF/IL-4, ([…] of each cytokine, R&D Systems) (2×10^5 per 200 μl well) for human assays. Cells were washed twice and starved for 6 hours in medium alone before addition to the stimulation experiments.
(§2) NKT cells were stimulated with heat-killed bacteria as indicated above for 48 hrs in 96 well round bottom plates in RPMI 1640 (Biofluids) supplemented with glutamine, antibiotics, 5×10^−5 M 2-ME and 10% FCS (mouse studies) or 5% AB serum (human studies). Concentrations of mouse and human IFN-γ. in the supernatant were measured at 48 hours using the respective ELISA kits (BD Bioscience, lower detection limit of 12.5 pg/ml).
(§3) The immunological properties of the above compounds in NKT cells were measured. Human Vα24-Jα18 NKT cells and fresh purified mouse NKT cells were co-cultured with DC pulsed with αGal-Cer or synthetic glycolipid at concentrations ranging from 0.001 to 1000 ng/mL. IFN-γ production was measured at 48 hours as described above.

NKT cells = experiment: activation of NKT cells in vitro by synthetic glycolipids
Description: Activation of NKT cells may be measured in vitro or ex vivo by any suitable method. An example of an in vitro test permitting evaluation of NKT cell activation is co-culturing NKT cells with antigen presenting cells (APC), such as dendritic cells (DC), in the presence of a bacterial glycolipid activator or putative activator, and subsequently assaying for IFN-γ or other secreted cytokines in the supernatant. Alternatively, activation of NKT cells can be measured ex vivo by administering a bacterial glycolipid antigen to a subject or by administering CD1d^+ antigen presenting cells after ex vivo contact with bacterial glycolipids to a subject. The NKT cells from these subjects can be isolated by, e.g., CD1d-tetramer staining and gating via flow cytometry, and subsequently assayed for surface CD69 (early T-cell activation antigen) and/or intracellular IFN-γ by suitable methods.
Some representative examples of suitable bacterial glycolipids for complexing with CD1d molecules and activating NKT cells are depicted in FIG. 5. […] The remaining compounds depicted in FIG. 5 were rationally designed based on the following features determined to be common among glycolipids capable of activating NKT cells: 1) an alpha-type glycosidic linkage and 2) oxidation at the 6-position on the carbohydrate moiety of the glycolipid.

[2] = system: human Vα24-Jα18 NKT cells; experiment: human Vα24-Jα18 NKT cells co-cultured with DC pulsed with synthetic glycolipid; details: for IFN-γ secretion: DC pulsed with 0.001 to 1000 ng/mL glycolipid, 48 hours
Protocol: as §1, §2, §3

mouse NKT cells [3] = experiment: mouse CD1d tetramer-sorted NKT cells co-cultured with bone marrow derived DC, IFN-γ ELISA; details: co-cultured with CD1+/− or CD1−/− DC; 48 hrs
Protocol: (§4) Bacterial strains Sphingomonas capsulata (ATCC 14666) and Salmonella typhimurium R71 were grown in Mueller-Hinton Agar. Ehrlichia muris were prepared as described by Ismail N et al., J. Immunol. 172, 1786-1800 (2004), incorporated herein by reference. Bacteria were heat killed by 2-hour exposure to 74° C. and 2.5-5×10^6 cfu equivalent/well were used for in vitro stimulation.
Stimulation assays were performed with whole spleen cells (5×10^5 per 200 μl well) or with purified T cells and antigen presenting cells. […]
as §2
Whole spleen cells co-cultured with DC of genotype MyD88^−/−, Trif^lps2/lps2 and MyD88^−/−Trif^lps2/lps2 (lacking one or the two adaptors MyD88 and TRIF for TLR signaling) or CD1^−/− were stimulated for 48 hours with 5×10^6 heat killed Salmonella, Sphingomonas or Ehrlichia. Concentrations of mouse and human IFN-γ. in the supernatant were measured at 48 hours using the respective ELISA kits (BD Bioscience, lower detection limit of 12.5 pg/ml).

human NKT cells [4] = experiment: human NKT cells co-cultured with PBMC-derived DC, IFN-γ ELISA; details: blocking with 1 μg/mL anti-CD1d antibodies or control IgG1
Protocol: as §4
Stimulation assays were performed with whole spleen cells (5×10^5 per 200 μl well) or with purified T cells and antigen presenting cells. T cell populations used in the assays comprised sorted CD1d-Gal-Cer+ mouse spleen cells (5×10^4 per 200 μl well), human peripheral blood lymphocytes (PBL) (5×10^5 per 200 μl well) (obtained after Ficoll centrifugation of heparinized blood) or human NKT cell lines (2.5×10^5 per 200 μl well). […]
as §2

human NKT cells [5] = experiment: CD1d-glycolipid tetramer staining of human NKT cells
Protocol: (§5) At 6 days post stimulation, CD1d-αGal-Cer, CFSE and αB220 (BD Pharmingen) labeling and staining procedures were performed and cells were analyzed by FACS. To generate CD1d-αGal-Cer tetramers, a mixture of 5 μl of αGal-Cer (from 1 mg/ml stock solution in DMSO), 10 μl of PBS 0.5% Tween 20, 10 μl of biotinylated CD1d (1 mg/ml), and 75 μl of PBS was incubated at 37° C. for 1 hr, and lipid-loaded CD1d was purified by centrifugation dialysis and complexed with streptavidin-APC. (Benlagha K. et al., J. Exp. Med. 191, 1895-1903 (2000).) Cells were analyzed on a FACSCalibur (BD Biosciences) with CellQuest software.
(§6) CD1d tetramers were prepared as described in Example 1 using synthetic glycolipids PBS 30, PBS 59 and PBS 50 and αGal-Cer, and were used to stain human NKT cells and mouse spleen cells.

mouse NKT cells [6] = experiment: CD1d-glycolipid tetramer staining of mouse spleen cells
Protocol: as §5, §6

**Q.** For α-galacturonosylceramide [PBS 59], which NKT cell proliferation (mouse NKT cells [1]) is on record?
**A.** The NKT cell proliferation was “strongly activated”.

**Q.** What about the IFN-γ secretion (mouse NKT cells [1]) of the same compound?
**A.** The IFN-γ secretion was “strongly activated”.

**Q.** And the “activation of NKT cells” value (NKT cells)?
**A.** Its value is “found to activate NKT cells”.

**Q.** And the NKT cell proliferation [2]?
**A.** The NKT cell proliferation was “strongly activated”.

**Q.** What about the IFN-γ secretion [2] of the same compound?
**A.** The IFN-γ secretion was “strongly activated”.

**Q.** What does the source list for `CCCCCCCCCCCCCCCCCCCCCCCCCC(=O)N[C@@H](CO[C@H]1O[C@H](CO)[C@H](O)[C@H](O)[C@H]1O)[C@H](O)[C@H](O)CCCCCCCCCCCCCC` [αGal-Cer, α-galactosylceramide]?
**A.** IFN-γ secretion by mouse NKT cells (mouse NKT cells [3]): secreted IFN-γ in a CD1d-dependent manner; IFN-γ secretion by human NKT cells (human NKT cells [4]): CD1d-dependent IFN-γ secretion

**Q.** Which NKT cell proliferation (mouse NKT cells [1]) does the source give for α-glucuronosylceramide [PBS 30] here?
**A.** The NKT cell proliferation was “strongly activated”.

**Q.** What about the IFN-γ secretion (mouse NKT cells [1]) of the same compound?
**A.** The IFN-γ secretion was “strongly activated”.

**Q.** And the “activation of NKT cells” value (NKT cells)?
**A.** Its value is “found to activate NKT cells”.

**Q.** What about the NKT cell proliferation [2] of the same compound?
**A.** Its NKT cell proliferation is “strongly activated”.

**Q.** What about the IFN-γ secretion [2] of the same compound?
**A.** The IFN-γ secretion was “strongly activated”.

**Q.** And the “human NKT cells stained by CD1d-glycolipid tetramers” value (human NKT cells [5])?
**A.** Its value is “all”.

**Q.** What about the “mouse NKT cells stained by CD1d-glycolipid tetramers” value (mouse NKT cells [6]) of the same compound?
**A.** Its value is ~25%.

**Q.** How did the NKT cell proliferation (mouse NKT cells [1]) turn out when “β-glucuronosylceramide [PBS 50, reference compound]” was run?
**A.** Its NKT cell proliferation is “did not”.

**Q.** And the IFN-γ secretion (mouse NKT cells [1])?
**A.** The IFN-γ secretion was “did not”.

**Q.** What about the “activation of NKT cells” value (NKT cells) of the same compound?
**A.** Its value is “do not activate NKT cells”.

**Q.** And the NKT cell proliferation [2]?
**A.** The NKT cell proliferation was “did not”.

**Q.** What about the IFN-γ secretion [2] of the same compound?
**A.** Its IFN-γ secretion is “did not”.
